Values of other authors, collected in patent US11224646B2, “Intranasal delivery of a cyclic-di-nucleotide adjuvanted vaccine for tuberculosis” (priority 2018, dated 2022).

Experiments:
[1] = system: phosphodiesterases
[2] = target: T1, murine STING (Mus musculus, UniProt Q3TBT3)
T1 sequence (Q3TBT3 1-378): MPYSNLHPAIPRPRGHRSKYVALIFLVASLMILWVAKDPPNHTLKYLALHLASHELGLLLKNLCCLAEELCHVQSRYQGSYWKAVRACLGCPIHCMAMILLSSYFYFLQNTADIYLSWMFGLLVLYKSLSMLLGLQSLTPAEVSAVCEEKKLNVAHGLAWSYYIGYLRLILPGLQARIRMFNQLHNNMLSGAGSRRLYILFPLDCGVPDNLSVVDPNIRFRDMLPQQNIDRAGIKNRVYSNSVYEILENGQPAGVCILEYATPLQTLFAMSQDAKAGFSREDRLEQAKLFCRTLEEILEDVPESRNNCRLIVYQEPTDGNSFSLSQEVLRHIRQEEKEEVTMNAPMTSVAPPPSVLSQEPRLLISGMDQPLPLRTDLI

[3] = system: five common human STING alleles

Row | SMILES | hydrolysis by phosphodiesterases [1] | activation of murine STING [2] | engagement / activation of the five common human STING alleles [3]
1 | Nc1nc2c(ncn2[C@@H]2O[C@@H]3COP(=O)(S)O[C@H]4[C@@H](O)[C@H](n5cnc6c(N)ncnc65)O[C@@H]4CO[P@@](=O)(S)O[C@@H]2[C@@H]3O)c(=O)[nH]1 (stereo partly drawn) [ML-RR-cGAMP, dithio-[RP, RP]-cyclic-[G(2′,5′)pA(3′,5′)p]] | resistant to hydrolysis by phosphodiesterases | – | –
2 | Nc1nc2c(ncn2[C@@H]2O[C@@H]3CO[P@@](=O)(S)O[C@H]4[C@@H](O)[C@H](n5cnc6c(=O)[nH]c(N)nc65)O[C@@H]4CO[P@@](=O)(S)O[C@H]3[C@H]2O)c(=O)[nH]1 [RR-CDG, dithio-[RP, RP]-cyclic-[G(3′,5′)pG(3′,5′)p]] | – | efficiently activates murine STING | does not engage all five common STING alleles
